Experiment: molar heat capacity at constant pressure
Conditions: 101.33 kPa, Vacuum adiabatic calorimetry

CCCCn1cc[n+](C)c1.[I-] [1-butyl-3-methylimidazolium iodide]
molar heat capacity at constant pressure [J/K/mol]
Conditions | Crystal | Liquid
239.7 K | – | 291.7
240 K | 206.3 | 291.7
240.03 K | 206.3 | –
240.46 K | – | 291.9
240.67 K | 206.7 | –
240.69 K | – | 291.9
241.59 K | 207.5 | –
241.7 K | – | 292.2
241.85 K | – | 292.2
242.01 K | 208 | –
242.65 K | 208.4 | –
242.68 K | – | 292.5
243.58 K | 209.1 | –
243.69 K | – | 292.7
243.99 K | 209.6 | –
244.04 K | – | 292.7
244.63 K | 210 | –
244.67 K | – | 293
245.57 K | 210.8 | –
245.96 K | 211.2 | –
246.6 K | 211.6 | –
247.55 K | 212.5 | –
247.93 K | 212.9 | –
248.56 K | 213.4 | –
249.54 K | 214.3 | –
249.7 K | – | 294.3
250 K | 214.6 | 294.4
250.52 K | 215.1 | –
251.69 K | – | 294.9
252.54 K | 217.2 | –
253.58 K | – | 295.4
254.59 K | 219.4 | –
255.48 K | – | 295.9
256.64 K | 221.7 | –
257.37 K | – | 296.5
258.69 K | 224.2 | –
259.26 K | – | 297.3
260 K | 223.4 | 297.4
260.73 K | 227 | –
261.15 K | – | 297.8
262.75 K | 230.3 | –
263.05 K | – | 298.3
264.77 K | 234 | –
264.94 K | – | 298.9
266.78 K | 238.1 | –
266.84 K | – | 299.7
267.43 K | – | 299.7
268.74 K | – | 300.2
268.77 K | 243.1 | –
269.42 K | – | 300.5
270 K | 232.6 | 300.6
270.64 K | – | 300.7
270.74 K | 249 | –
271.32 K | – | 301
272.7 K | 256.2 | –
273.22 K | – | 301.5
274.63 K | 266.1 | –
275.12 K | – | 302.3
276.52 K | 280.2 | –
277.02 K | – | 302.9
278.36 K | 295.7 | –
278.92 K | – | 303.4
280 K | 242.3 | 303.8
280.15 K | 317.2 | –
280.82 K | – | 303.9
281.86 K | 349.7 | –
282.72 K | – | 304.7
283.46 K | 398.1 | –
284.62 K | – | 305.2
284.92 K | 473.4 | –
286.2 K | 587.3 | –
286.52 K | – | 306
287.29 K | 773.4 | –
288.17 K | 1041 | –
288.42 K | – | 306.6
288.86 K | 1421 | –
289.4 K | 1917 | –
290 K | 252.5 | 307.1
290.32 K | – | 307.1
291.92 K | 254.5 | 307.8
292.23 K | – | 307.9
293.86 K | – | 308.4
294.13 K | – | 308.4
294.32 K | – | 308.7
295.68 K | – | 309
296.03 K | – | 309.2
296.1 K | – | 309.2
297.5 K | – | 309.8
297.89 K | – | 309.8
297.93 K | – | 309.8
298.15 K | – | 309.9
299.84 K | – | 310.6
300 K | – | 310.5
301.74 K | – | 311.1
303.65 K | – | 311.9
305.55 K | – | 312.4
307.45 K | – | 313.2
309.36 K | – | 313.8
310 K | – | 314.1
311.26 K | – | 314.6
313.17 K | – | 315.1
315.07 K | – | 315.9
316.98 K | – | 316.7
318.89 K | – | 317.2
320 K | – | 317.6
320.79 K | – | 318
322.7 K | – | 318.6
324.6 K | – | 319.4
326.51 K | – | 320.1
328.41 K | – | 320.7
330 K | – | 321.3
330.32 K | – | 321.5
332.22 K | – | 322
334.13 K | – | 322.8
336.03 K | – | 323.6
337.93 K | – | 324.4
339.84 K | – | 324.9
340 K | – | 325.1
341.74 K | – | 325.7
343.65 K | – | 326.5
345.55 K | – | 327.3
347.47 K | – | 327.9
349.37 K | – | 328.7
350 K | – | 328.9
351.28 K | – | 329.5
353.19 K | – | 330.3
355.09 K | – | 330.8
357 K | – | 331.6
358.91 K | – | 332.4
360 K | – | 332.9
360.81 K | – | 333.2
362.72 K | – | 334
364.62 K | – | 334.8
366.52 K | – | 335.3
368.43 K | – | 336.4
370 K | – | 336.9

Source: the NIST ThermoML archive (doi:10.1016/j.jct.2014.07.018)
